Test results taken from PubChem BioAssay (NCI).
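Compound exposure: 48 hours, 5 concentrations, 96-well plates. At the GI50, growth is halved. At the TGI there is no net growth.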

What was measured:
Experiment in all cases: DTP human tumour cell line panel, 48 h
HL-60(TB) leukemia = system: HL-60(TB) leukemia
KM12 colon = system: KM12 colon
MALME-3M melanoma = system: MALME-3M melanoma
HCT-116 colon = system: HCT-116 colon
SNB-75 CNS = system: SNB-75 CNS
HCT-15 colon = system: HCT-15 colon
OVCAR-3 ovarian = system: OVCAR-3 ovarian
TK-10 renal = system: TK-10 renal
SF-268 CNS = system: SF-268 CNS
COLO 205 colon = system: COLO 205 colon
SF-295 CNS = system: SF-295 CNS
MOLT-4 leukemia = system: MOLT-4 leukemia
CCRF-CEM leukemia = system: CCRF-CEM leukemia
RXF 393 renal = system: RXF 393 renal
ACHN renal = system: ACHN renal
SF-539 CNS = system: SF-539 CNS
OVCAR-5 ovarian = system: OVCAR-5 ovarian
LOX IMVI melanoma = system: LOX IMVI melanoma
M14 melanoma = system: M14 melanoma
OVCAR-8 ovarian = system: OVCAR-8 ovarian
SK-MEL-2 melanoma = system: SK-MEL-2 melanoma
SW-620 colon = system: SW-620 colon
786-0 renal = system: 786-0 renal
BT-549 breast = system: BT-549 breast
HOP-92 NSCLC = system: HOP-92 NSCLC
HT29 colon = system: HT29 colon
CAKI-1 renal = system: CAKI-1 renal
A549 NSCLC = system: A549 NSCLC
UO-31 renal = system: UO-31 renal
SNB-19 CNS = system: SNB-19 CNS
A498 renal = system: A498 renal
UACC-62 melanoma = system: UACC-62 melanoma
MCF7 breast = system: MCF7 breast
NCI-H522 lung = system: NCI-H522 lung
HCC-2998 colon = system: HCC-2998 colon
UACC-257 melanoma = system: UACC-257 melanoma
U251 CNS = system: U251 CNS
PC-3 prostate = system: PC-3 prostate
NCI-H460 lung = system: NCI-H460 lung
SR leukemia = system: SR leukemia
SN12C renal = system: SN12C renal
IGROV1 ovarian = system: IGROV1 ovarian
OVCAR-4 ovarian = system: OVCAR-4 ovarian
T-47D breast = system: T-47D breast
EKVX NSCLC = system: EKVX NSCLC
NCI-H23 lung = system: NCI-H23 lung
MDA-MB-435 = system: MDA-MB-435
HOP-62 NSCLC = system: HOP-62 NSCLC
HS 578T breast = system: HS 578T breast
MDA-MB-231 breast = system: MDA-MB-231 breast
SK-OV-3 ovarian = system: SK-OV-3 ovarian
K-562 leukemia = system: K-562 leukemia
RPMI-8226 leukemia = system: RPMI-8226 leukemia
NCI-H226 lung = system: NCI-H226 lung
DU-145 prostate = system: DU-145 prostate
NCI/ADR-RES ovarian = system: NCI/ADR-RES ovarian
SK-MEL-5 melanoma = system: SK-MEL-5 melanoma

Clc1ccc(CNc2ccc3nc(CCC4CCCCC4)[nH]c3c2)cc1 gave a GI50 (HL-60(TB) leukemia) of 2.03 µM, a TGI (HL-60(TB) leukemia) of 4.7 µM and a GI50 (KM12 colon) of 2.49 µM. For the same molecule, the TGI (KM12 colon) was 7 µM, the GI50 (MALME-3M melanoma) was 1.77 µM and the TGI (MALME-3M melanoma) was 4.08 µM. It also gave a GI50 (HCT-116 colon) of 1.93 µM, a TGI (HCT-116 colon) of 4.96 µM and a GI50 (SNB-75 CNS) of 1.91 µM. The TGI (SNB-75 CNS) was 5.81 µM, the GI50 (HCT-15 colon) was 1.83 µM and the TGI (HCT-15 colon) was 5.64 µM. For the same molecule, the GI50 (OVCAR-3 ovarian) was 3.02 µM, the TGI (OVCAR-3 ovarian) was 12.2 µM and the GI50 (TK-10 renal) was 2.61 µM. The TGI (TK-10 renal) was 7.87 µM, the GI50 (SF-268 CNS) was 3.13 µM and the TGI (SF-268 CNS) was 29.9 µM. For the same molecule, the GI50 (COLO 205 colon) was 1.93 µM, the TGI (COLO 205 colon) was 3.73 µM and the GI50 (SF-295 CNS) was 1.96 µM. For the same molecule, the TGI (SF-295 CNS) was 4.07 µM, the GI50 (MOLT-4 leukemia) was 2.52 µM and the TGI (MOLT-4 leukemia) was 8.23 µM. The GI50 (CCRF-CEM leukemia) was 3.27 µM, the TGI (CCRF-CEM leukemia) was > 100 µM and the GI50 (RXF 393 renal) was 1.97 µM. It also gave a TGI (RXF 393 renal) of 4.95 µM, a GI50 (ACHN renal) of 3.03 µM and a TGI (ACHN renal) of 11.2 µM. The GI50 (SF-539 CNS) was 2.14 µM, the TGI (SF-539 CNS) was 4.83 µM and the GI50 (OVCAR-5 ovarian) was 2.39 µM. It also gave a TGI (OVCAR-5 ovarian) of 6.68 µM, a GI50 (LOX IMVI melanoma) of 1.7 µM and a TGI (LOX IMVI melanoma) of 3.1 µM. For the same molecule, the GI50 (M14 melanoma) was 1.93 µM, the TGI (M14 melanoma) was 3.95 µM and the GI50 (OVCAR-8 ovarian) was 3.18 µM. The TGI (OVCAR-8 ovarian) was 19.9 µM, the GI50 (SK-MEL-2 melanoma) was 2.24 µM and the TGI (SK-MEL-2 melanoma) was 5.12 µM. For the same molecule, the GI50 (SW-620 colon) was 1.78 µM, the TGI (SW-620 colon) was 3.7 µM and the GI50 (786-0 renal) was 2.03 µM. For the same molecule, the TGI (786-0 renal) was 4.4 µM, the GI50 (BT-549 breast) was 2.14 µM and the TGI (BT-549 breast) was 7.24 µM. The GI50 (HOP-92 NSCLC) was 1.47 µM, the TGI (HOP-92 NSCLC) was 3.8 µM and the GI50 (HT29 colon) was 1.9 µM. The TGI (HT29 colon) was 4.66 µM, the GI50 (CAKI-1 renal) was 2.46 µM and the TGI (CAKI-1 renal) was 6.53 µM. The GI50 (A549 NSCLC) was 3.14 µM, the TGI (A549 NSCLC) was > 100 µM and the GI50 (UO-31 renal) was 1.49 µM. For the same molecule, the TGI (UO-31 renal) was 3.29 µM, the GI50 (SNB-19 CNS) was 3.12 µM and the TGI (SNB-19 CNS) was 14.8 µM. It also gave a GI50 (A498 renal) of 1.36 µM, a TGI (A498 renal) of 3.4 µM and a GI50 (UACC-62 melanoma) of 1.76 µM. It also gave a TGI (UACC-62 melanoma) of 3.41 µM, a GI50 (MCF7 breast) of 1.8 µM and a TGI (MCF7 breast) of 4.63 µM. It also gave a GI50 (NCI-H522 lung) of 1.71 µM, a TGI (NCI-H522 lung) of 3.95 µM and a GI50 (HCC-2998 colon) of 1.81 µM. The TGI (HCC-2998 colon) was 3.41 µM, the GI50 (UACC-257 melanoma) was 2.3 µM and the TGI (UACC-257 melanoma) was 6.3 µM. The GI50 (U251 CNS) was 1.73 µM, the TGI (U251 CNS) was 3.47 µM and the GI50 (PC-3 prostate) was 2.66 µM. The TGI (PC-3 prostate) was 10.9 µM, the GI50 (NCI-H460 lung) was 2.15 µM and the TGI (NCI-H460 lung) was 4.82 µM. The GI50 (SR leukemia) was 3.15 µM, the TGI (SR leukemia) was 9.92 µM and the GI50 (SN12C renal) was 2.76 µM. For the same molecule, the TGI (SN12C renal) was 11.5 µM, the GI50 (IGROV1 ovarian) was 3 µM and the TGI (IGROV1 ovarian) was 36.9 µM. It also gave a GI50 (OVCAR-4 ovarian) of 3.5 µM, a TGI (OVCAR-4 ovarian) of 90.7 µM and a GI50 (T-47D breast) of 2.24 µM. The TGI (T-47D breast) was 6.55 µM, the GI50 (EKVX NSCLC) was 2.2 µM and the TGI (EKVX NSCLC) was 7.06 µM. For the same molecule, the GI50 (NCI-H23 lung) was 2.07 µM, the TGI (NCI-H23 lung) was 4.94 µM and the GI50 (MDA-MB-435) was 1.88 µM. It also gave a TGI (MDA-MB-435) of 4.1 µM, a GI50 (HOP-62 NSCLC) of 2.01 µM and a TGI (HOP-62 NSCLC) of 4.16 µM. It also gave a GI50 (HS 578T breast) of 2.12 µM, a TGI (HS 578T breast) of 6.37 µM and a GI50 (MDA-MB-231 breast) of 1.64 µM. It also gave a TGI (MDA-MB-231 breast) of 3.18 µM, a GI50 (SK-OV-3 ovarian) of 2.32 µM and a TGI (SK-OV-3 ovarian) of 5.95 µM. It also gave a GI50 (K-562 leukemia) of 2.09 µM, a TGI (K-562 leukemia) of 5.02 µM and a GI50 (RPMI-8226 leukemia) of 2.09 µM. For the same molecule, the TGI (RPMI-8226 leukemia) was 5.02 µM, the GI50 (NCI-H226 lung) was 1.76 µM and the TGI (NCI-H226 lung) was 4.16 µM. It also gave a GI50 (DU-145 prostate) of 3.7 µM, a TGI (DU-145 prostate) of 23.2 µM and a GI50 (NCI/ADR-RES ovarian) of 2.5 µM. The TGI (NCI/ADR-RES ovarian) was 7.97 µM, the GI50 (SK-MEL-5 melanoma) was 1.69 µM and the TGI (SK-MEL-5 melanoma) was 3.09 µM.
